In patent US12661382B2, “Method for obtaining oleocanthal type secoiridoids and for producing respective pharmaceutical preparations” (OMPHAX SA, priority 2019, dated 2026):

Experiment: water solubility
Assay type: physicochemical

water solubility with respect to substances (1-6)	Substance
greatly increased water solubility	oleuropeinediol [Substance 11]
greatly increased water solubility	ligstrodiol [Substance 12]
greatly increased water solubility	5S-(E)-oleokoronadiol [Substance 10]

Second part, the substance before the results:

Substance	water solubility with respect to substances (1-6)
S-(E)-oleaceinediol [Substance 8]	greatly increased water solubility
S-(E)-oleocanthadiol [Substance 7]	greatly increased water solubility
5S-(E)-oleomissionadiol [Substance 9]	greatly increased water solubility
